Laboratory results as given in patent publication US10336732B2, “1-heterocyclyl isochromanyl compounds and analogs for treating CNS disorders” (Sunovion Pharmaceuticals Inc., priority 2015, dated 2019).

Target: T1, M4 (Homo sapiens, UniProt P08173)
T1 construct: expressed in transfected cells; host or cells: CHO cells
T1 sequence (P08173 1-479): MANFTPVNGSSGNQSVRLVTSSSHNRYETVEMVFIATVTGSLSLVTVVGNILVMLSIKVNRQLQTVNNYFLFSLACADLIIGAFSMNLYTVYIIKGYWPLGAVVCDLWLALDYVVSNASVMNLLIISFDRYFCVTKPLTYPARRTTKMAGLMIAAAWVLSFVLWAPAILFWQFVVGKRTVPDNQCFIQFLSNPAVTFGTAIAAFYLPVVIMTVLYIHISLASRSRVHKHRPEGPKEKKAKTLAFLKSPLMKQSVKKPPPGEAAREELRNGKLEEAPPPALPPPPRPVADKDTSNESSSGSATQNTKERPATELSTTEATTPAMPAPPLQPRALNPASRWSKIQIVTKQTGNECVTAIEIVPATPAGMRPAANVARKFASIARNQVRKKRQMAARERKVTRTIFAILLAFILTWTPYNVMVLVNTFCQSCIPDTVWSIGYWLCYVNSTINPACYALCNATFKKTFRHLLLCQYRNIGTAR
Experiment: In vitro radioligand binding assay, M4, [3H]4-DAMP
Conditions: human recombinant (CHO cells)
Procedure: Certain compounds were tested by in vitro binding assays using standard procedures. […] These receptors and assays are well known to those skilled in the art, as exemplified by the following: Abramovitz, M. et al. (2000), Biochem. Biophys. Acta., 1483: 285-293 (EP4, IP (PGI2)); Aharony, D. et al. (1993), Mol. Pharmacol., 44: 356-363 (NK2); Ardati, A. et al. (1997), Mol. Pharmacol., 51: 816-824 (NOP (ORL1)); Bignon, E. et al. (1999), J. Pharmacol. Exp. Ther. 289: 742-751 (CCK1 (CCKA)); Bloomquist, B. T. et al. (1998), Biochem. Biophys. Res. Commun., 243: 474-479 (GAL2); Brockhaus, M. et al. (1990), Proc. Natl. Acad. Sci. U.S.A., 87: 3127-3131 (TNF-α); Brown, G. B. (1986), J. Neurosci., 6: 2064-2070 (Na+ channel (site 2)); Buchan, K. W. et al. (1994), Brit. J. Pharmacol., 112: 1251-1257 (ETA); Cesura, A. M. et al. (1990), Mol. Pharmacol., 37: 358-366 (MAO-A); Choi, D. S. et al. (1994), FEBS Lett., 352: 393-399 (5-HT2B); Clark, A. F. et al. (1996), Invest. Ophtalmol. Vis. […]

`Fc1cccc2c1CCO[C@@H]2[C@H]1CCN1` [Compound I-96, (R)-2-((S)-5-fluoroisochroman-1-yl)azetidine] was tested. Which “M4 percent inhibition of specific binding” value did it give?
Its value is “M4 (53%)”.
